Laboratory results reported in patent publication US9415084B2, “Treatment of leaky or damaged tight junctions and enhancing extracellular matrix” (Arch Biosurgery, Inc., priority 2007, dated 2016).
“And” between values parts separate entries of the source, which are not always exact repeats. Equal values may be shown once.

Columns and labels:
liver [1] = test: Hemostasis in liver transverse cut severing a branch of the portal vein; assay type: in vivo; conditions: rat liver transverse cut
Description: Rats were anesthetized and placed on their back and the abdomen was opened exposing the liver (FIG. 4c). The left lobe of the liver was cut using a scalpel in the rostral to caudal direction separating the two halves of the lobe in the sagittal cut. With a 27 gauge needle, 100 μl of 1% or 2%, of RADA16-I (SEQ ID NO: 60) (NHS-1), RADA-12 (NHS-2), or EAK-16 (TM-3) solution was applied to the site of injury. Livers of the controls were treated with saline or cauterized. Cauterization was performed using a thermal cautery device and was applied to entire surface of the injury. In another group of adult rats the same procedure was followed for the liver, which was cut transversely (FIG. 4d). With a 27 gauge needle, 400 μl of 1%, 2%, 3%, or 4% of NHS-1, or TM-3 solution was applied to the site of injury.
In the second experiment a major branch of the portal vein was severed while making a transverse cut in the left lobe to test NHS-1 in a high flow rate environment. Four concentrations of NHS-1 were tested (n=12) along with (n=4) control animals. 400 μl of 4% concentration NHS-1 was applied and bleeding stopped in 11 seconds. The test was successfully duplicated with 400 μl of both 3% and 2% NHS-1 solution; bleeding ceased in 10 and 10.3 seconds, respectively (FIG. 3d). When 400 μl of 1% NHS-1 was applied, bleeding continued for more than 60 seconds (FIG. 3d). The controls, however, bled for over 6 minutes. […] A significant difference was found between the NHS-1 treated and control groups using ANOVA.
The increased blood flow from the portal vein after making a transverse liver cut allowed the performance of another dose response experiment where various concentrations of NHS-1 (1% to 4%) and TM-3 (1% to 3%) could be compared with controls (FIG. 3d). All concentrations of NHS-1 were effective; however the higher blood pressure and flow rate after the transverse liver cut required a concentration of 2% or higher of NHS-1 to stop bleeding in less than 15 seconds.

liver [2] = conditions: rat, in vivo
Description: (§1) In the brain and liver of anesthetized adult rats 1% or 2% of NHS-1 was injected immediately after making a cut and the treatment site was sampled. Samples were fixed in a mixture of 2% para-formaldehyde and 2.5% glutaraldehyde in 0.1M PB for 4 hours. The samples were washed in 0.1M PB buffer 10 min×3 at 4° C. and embedded in 2% agar. Agar blocks were post fixed in 1% osmium tetroxide for 2 hrs at 4° C. and then washed in buffer for 10 min×3 at 4° C. The sample blocks were dehydrated in ethanol infiltrated and embedded in pure epon with Lynx EM tissue processor. Ultra-thin 70 nm sections were cut (Reichert-Jung ultra cut) and collected on #200 mesh grids. Sections and grids were stained with uranyl acetate and lead citrate and examined under Philip EM208S transmission electron microscope.
Still looking for mechanism clues as well as further understanding of the relationship of the NHS-1 blood/tissue interface in both the brain and liver, the treated tissues were examined under the transmission electron microscope (TEM), to determine how the red blood cells (RBCs), platelets, tissue and the ECM interact with the material.
A 1% NHS-1 solution was applied to a liver wound and immediately harvested the tissue.

liver [3] = test: Hemostasis in liver 4 mm punch biopsy; assay type: in vivo; conditions: rats allowed to survive for up to 6 months after 3% treatment
Description: In another group of anesthetized adult rats, the liver was exposed and a 4 mm punch biopsy from the ventral aspect through the liver to the dorsal surface of the left liver lobe. The resulting core was removed from the liver and one of three treatments was applied. In one treatment, 200 μl of a 3% NHS-1 solution was applied to the site of injury. In one control saline was applied to the site of injury. In a second control, the injury surface was cauterized. The superficial material was then wiped clear of the injury site. […]
In the third experiment using adult rats (n=45) 4 mm holes were punched through the left lateral lobe and then the area was treated with 3% NHS-1, saline or heat cautery to bring about hemostasis (FIG. 3b). […] In the heat cautery control group (n=15) cessation of bleeding took more than 60 seconds, inclusive of applying heat to cauterize the inside surface of the punch. […] Using ANOVA there was a significant difference between the 3% NHS-1 treatment and the controls (p<0.0001).

spinal cord = test: Hemostasis in a spinal cord injury (T2 hemisection); assay type: in vivo, rat; conditions: adult rats, 20 μl of 1% solution
Description: Under an operating microscope, the second thoracic spinal cord segment (T2) was identified before performing a dorsal laminectomy in anesthetized adult rats. After opening the dura mater, a right hemisection was performed using a ceramic knife. Immediately after the cord hemisection 20 μl of 1% solution of RADA16-I (SEQ ID NO: 60) (NHS-1) was applied to the area of the cut for bleeding control. The controls received a saline treatment. The animals were allowed to survive for up to 8 weeks as part of another experiment. The spinal environment and the brain environment were investigated for similarities or differences. Secondary damage caused by surgery can be reduced by quickly bringing bleeding under control. After laminectomy and removal of the dura, the spinal cord was hemisected at T2, from the dorsal to ventral aspect and treated (N=5) with 20 μl of 1% NHS-1. […] In the saline controls (n=5) it took on average 163 seconds to stop bleeding (FIG. 3a).

femoral artery = test: Hemostasis in a high pressure femoral artery wound; assay type: in vivo, rat; conditions: two cases, data not shown
Description: Rats were placed on their backs and the hind limb was extended to expose the medial aspect of the thigh (FIG. 4b). The skin was removed and the overlying muscles were cut to expose the femoral artery and sciatic nerve. The femoral artery was cut to produce a high pressure bleeder. With a 27 gauge needle, 200 μl of 1% RADA16-I (SEQ ID NO: 60) (NHS-1) solution was applied over the site of injury. In two cases powder was applied to the injury site which also worked. (Data not shown and was not included in the analysis). Controls were treated with a combination of saline and pressure with a […]. All animals were sacrificed four hours after the experiment. The femoral artery of 14 adult rats was surgically exposed, transected and then treated with 200 μl of 1% solution of NHS-1 or iced saline and packing. The treated cases (n=10) took about 10 seconds to achieve hemostasis (FIG. 3a). The controls (n=4) continued to bleed more than 6 minutes. The difference in times to achieve complete hemostasis was highly significant (Student t test p<0.0001).

brain, lung, or liver = test: Examination of treated animals for thrombi; assay type: in vivo
brain = conditions: rat, in vivo
Description: as §1

Substance: n-RADARADARADARADA-c [NHS-1]
- hemostasis after removing the excess assembled material (liver [1]; 2%, 3% and 4% concentration): complete hemostasis was maintained
- time to hemostasis (liver [1]; 400 μl of 2% solution): 10.3 s and 10.3 ± 0.5 s
- time to hemostasis (liver [1]; 400 μl of 3% solution): 10 s and 10.0 ± 1.0 s
- time to hemostasis (liver [1]; 400 μl of 4% solution): 11 s and 11.0 ± 1.0 s
- concentration required for complete hemostasis in less than 15 seconds (liver [1]; higher blood pressure/flow rate): ≥ 2%
- hemostatic effectiveness over the concentrations tested (liver [1]; NHS-1 1% to 4%, TM-3 1% to 3%): effective
- lysing of RBCs at the interface (liver [2]): no evidence of lysing
- platelet aggregation at the blood/NHS-1 interface (liver [2]): no evidence of platelet aggregation
- effect on the tissues in surviving animals (liver [3]): no detrimental effect on the tissues
- time to hemostasis (spinal cord): 7.6 s
- hemostasis with powder applied to the injury site (femoral artery): also worked
- thrombi in the brain, lung, or liver (brain, lung, or liver): no evidence of thrombi
- lysing of RBCs at the edges of the assembled material (brain): no evidence of lysing
- platelet aggregation in the assembled material (brain): no evidence of platelet aggregation
